From patent US12624050B2, “Three fused ring derivative-containing salt or crystal form and pharmaceutical composition thereof” (Shanghai Hansoh Biomedical Co., Ltd., priority 2019, dated 2026) come the findings set out here.

One test deals with T1, PI3Kβ (Homo sapiens, UniProt P42338).
T1 construct: purchased Carna #11-102
Put plainly: ADP-Glo Lipid Kinase Assay, PI3Kβ kinase activity. The test is classed as biochemical. Conditions: for Selectivity of PI3Kα vs PI3Kβ: ratio of IC50 values. On the procedure: (§1) In this experiment, ADP-Glo Lipid Kinase Assay (Promega #V9102) from Promega was used. The lipid kinases PI3Kα/β/γ/δ catalyzed the ATP-to-ADP reaction in the presence of the substrate PIP2:3PS and ATP. The lipid kinase activity was characterized by measuring the ADP content in the reaction, and the half inhibition concentrations IC50 of the compounds on PI3Kα/β/γ/δ kinase activity were obtained.
(§2) Kinase reactions were carried out in white 384-well plates (Perkin Elmer #6007299). 2 μL of the compound of various concentrations diluted with ddH2O containing 1% DMSO was added to each well, and 2 μL of ddH2O containing 1% DMSO was added to positive control wells. Then 2 μL of 0.1 to 2 nM PI3K kinase solution diluted with 5× kinase buffer (HEPES 250 mM, MgCl2 15 mM, NaCl 250 mM, BSA 0.05%) was added to each well, and 2 μL of 5× kinase buffer was added to the negative control wells. 4 μL of 50 μM substrate PIP2:3PS (Promega #V1701) prepared with 10× Dilution buffer and ddH2O was added to all wells. Finally, 2 μL of 50 to 100 μM ATP solution diluted with water was added to start the reaction. After the reaction was carried out at room temperature for 90 to 120 minutes, 10 µL of ADP-Glo Reagent (containing 10 mM MgCl2) was added to each well, and the reaction was carried out at room temperature for 60 minutes to eliminate excess adenosine triphosphate (ATP) in the reaction. Then 20 μL of Kinase Detection Reagent was added to each well. After the reaction was carried out for 20 minutes at room temperature in the dark, the chemiluminescence was measured by BioTek Synergy H1 microplate reader.
(§3) The percentage inhibition data of the compound-treated well was calculated from positive control wells (DMSO control wells) and negative control wells (no kinase added) on the plate {% inhibition=100−[(test compound value−negative control value)]/(positive control value-negative control value)×100}. IC50 values were calculated using GraphPad prism and using a four-parameter nonlinear logistic formula to fit the data of different concentrations and corresponding percent inhibition.

For another test, the target named is T2, PI3Kγ (Homo sapiens, UniProt P48736).
T2 construct: purchased Thermofisher #PV4786
T2 sequence (P48736 whole entry): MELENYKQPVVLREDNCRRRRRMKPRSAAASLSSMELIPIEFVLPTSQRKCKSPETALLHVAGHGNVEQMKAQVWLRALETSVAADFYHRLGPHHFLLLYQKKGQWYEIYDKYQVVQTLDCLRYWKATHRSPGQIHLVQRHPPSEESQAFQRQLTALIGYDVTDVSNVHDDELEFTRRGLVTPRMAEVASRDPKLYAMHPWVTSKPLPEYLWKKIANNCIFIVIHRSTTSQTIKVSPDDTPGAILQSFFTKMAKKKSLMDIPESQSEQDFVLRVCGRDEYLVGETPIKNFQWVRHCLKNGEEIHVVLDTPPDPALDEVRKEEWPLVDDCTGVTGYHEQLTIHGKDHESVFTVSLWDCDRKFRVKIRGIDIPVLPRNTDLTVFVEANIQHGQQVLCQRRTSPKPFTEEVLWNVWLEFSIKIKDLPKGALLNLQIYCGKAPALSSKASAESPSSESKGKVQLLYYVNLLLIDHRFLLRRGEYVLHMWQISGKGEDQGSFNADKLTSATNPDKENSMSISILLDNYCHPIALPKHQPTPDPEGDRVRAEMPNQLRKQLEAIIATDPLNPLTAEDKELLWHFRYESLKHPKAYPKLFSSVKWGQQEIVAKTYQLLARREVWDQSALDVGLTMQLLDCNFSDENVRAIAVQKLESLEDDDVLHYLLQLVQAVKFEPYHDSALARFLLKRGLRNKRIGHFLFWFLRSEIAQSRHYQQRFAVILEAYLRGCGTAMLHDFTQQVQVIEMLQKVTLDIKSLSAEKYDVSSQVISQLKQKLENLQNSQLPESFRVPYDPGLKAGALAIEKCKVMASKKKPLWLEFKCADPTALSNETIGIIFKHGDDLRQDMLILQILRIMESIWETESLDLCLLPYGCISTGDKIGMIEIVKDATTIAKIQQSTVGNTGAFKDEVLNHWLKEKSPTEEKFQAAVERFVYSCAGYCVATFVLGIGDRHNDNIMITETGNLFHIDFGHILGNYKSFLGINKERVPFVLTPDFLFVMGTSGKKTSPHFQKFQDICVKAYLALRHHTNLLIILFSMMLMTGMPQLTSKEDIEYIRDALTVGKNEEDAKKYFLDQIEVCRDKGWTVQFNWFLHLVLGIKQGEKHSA
Put plainly: ADP-Glo Lipid Kinase Assay, PI3Kγ kinase activity. The test is classed as biochemical. The note with it: for Selectivity of PI3Kα vs PI3Kγ: ratio of IC50 values. On the procedure:
as §1, §2, §3
On the technique in general: ADP-Glo turns the ADP formed in a reaction into a luminescent signal.

Another test deals with T3, PI3Kδ (Homo sapiens, UniProt O00329).
T3 construct: purchased Carna #11-103
T3 sequence (O00329 whole entry): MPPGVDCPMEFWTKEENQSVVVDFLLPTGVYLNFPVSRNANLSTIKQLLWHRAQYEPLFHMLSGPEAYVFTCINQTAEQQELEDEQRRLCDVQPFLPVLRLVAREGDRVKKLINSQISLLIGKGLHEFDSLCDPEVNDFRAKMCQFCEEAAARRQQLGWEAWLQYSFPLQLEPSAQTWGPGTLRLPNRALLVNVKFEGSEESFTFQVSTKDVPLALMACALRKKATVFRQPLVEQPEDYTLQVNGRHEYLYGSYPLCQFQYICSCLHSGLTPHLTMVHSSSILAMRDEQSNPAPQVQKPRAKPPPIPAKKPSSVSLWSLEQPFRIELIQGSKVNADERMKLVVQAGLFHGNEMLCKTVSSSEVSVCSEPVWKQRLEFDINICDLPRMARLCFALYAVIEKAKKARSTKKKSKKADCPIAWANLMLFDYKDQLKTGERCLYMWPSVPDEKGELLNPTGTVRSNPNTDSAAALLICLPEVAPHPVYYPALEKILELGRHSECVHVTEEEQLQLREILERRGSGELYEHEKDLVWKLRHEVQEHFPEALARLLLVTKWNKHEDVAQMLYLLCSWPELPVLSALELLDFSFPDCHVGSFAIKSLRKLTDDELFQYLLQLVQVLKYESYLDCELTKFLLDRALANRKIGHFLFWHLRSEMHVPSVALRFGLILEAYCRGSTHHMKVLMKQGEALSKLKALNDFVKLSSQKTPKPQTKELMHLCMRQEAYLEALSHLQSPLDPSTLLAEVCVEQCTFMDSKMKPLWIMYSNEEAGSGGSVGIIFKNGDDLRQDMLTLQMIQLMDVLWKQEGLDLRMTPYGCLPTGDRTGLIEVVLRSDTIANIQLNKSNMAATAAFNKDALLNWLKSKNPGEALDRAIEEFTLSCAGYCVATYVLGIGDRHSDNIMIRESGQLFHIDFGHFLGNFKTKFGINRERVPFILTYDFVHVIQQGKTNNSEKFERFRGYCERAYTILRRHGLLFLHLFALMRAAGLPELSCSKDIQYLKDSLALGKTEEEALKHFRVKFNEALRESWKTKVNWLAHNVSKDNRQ
T3 sequence (P27986 whole entry partner): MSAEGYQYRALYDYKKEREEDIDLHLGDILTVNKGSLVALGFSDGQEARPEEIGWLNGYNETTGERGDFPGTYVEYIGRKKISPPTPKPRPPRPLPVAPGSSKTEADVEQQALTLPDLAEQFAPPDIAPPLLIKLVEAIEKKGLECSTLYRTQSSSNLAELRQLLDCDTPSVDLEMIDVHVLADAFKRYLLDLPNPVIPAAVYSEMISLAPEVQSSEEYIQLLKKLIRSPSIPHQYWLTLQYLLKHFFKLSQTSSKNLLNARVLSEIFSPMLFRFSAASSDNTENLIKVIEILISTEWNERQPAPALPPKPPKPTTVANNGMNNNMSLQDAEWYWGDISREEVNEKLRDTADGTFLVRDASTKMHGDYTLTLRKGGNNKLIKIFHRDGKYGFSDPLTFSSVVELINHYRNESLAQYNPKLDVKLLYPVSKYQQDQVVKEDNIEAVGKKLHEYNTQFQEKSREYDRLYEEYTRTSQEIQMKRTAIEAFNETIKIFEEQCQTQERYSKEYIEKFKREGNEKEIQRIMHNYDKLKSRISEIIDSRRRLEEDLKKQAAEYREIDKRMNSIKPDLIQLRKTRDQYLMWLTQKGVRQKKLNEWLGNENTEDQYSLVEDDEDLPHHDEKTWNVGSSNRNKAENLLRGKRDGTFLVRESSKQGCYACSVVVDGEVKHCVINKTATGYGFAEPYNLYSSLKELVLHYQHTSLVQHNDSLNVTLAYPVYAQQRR
In words: ADP-Glo Lipid Kinase Assay, PI3Kδ kinase activity. Format: biochemical. The note with it: for Selectivity of PI3Kα vs PI3Kδ: ratio of IC50 values. On the procedure:
as §1, §2, §3

For another test, the system named is HCC1954 (H1047R). Put plainly: Proliferation inhibition of PI3Kα mutant cancer cells, Cell Titer-Glo, HCC1954. Conditions: Homo sapiens. The test is classed as cell-based. On the procedure: (§4) The proliferation inhibitory effect of the compounds of the examples on the PI3Kα mutant cancer cell lines (HCC1954, HGC-27 and MKN1) was detected by Cell Titer-Glo method. Cell lines were cultured in RPMI 1640 medium (Gibco #22400089) containing 10% FBS (Gibco #10091148) and 1% P/S (Hyclone #SV30010) under the condition of 37° C. and 5% CO2. The cells were collected before the experiment, and the cell density was adjusted after cell counting. The cells were seeded in a white 96-well plate (Corning #3610) at a density of 1000 to 10000 cells/well, and incubated in an incubator at 37° C. and 5% CO2 overnight. The prepared compound solutions of different concentrations and the corresponding solvent controls were added to the plate. The plate was again incubated in an incubator at 37° C. and 5% CO2 for 48 to 96 hours. Then the cell plate and its contents were equilibrated to room temperature. 20 to 100 μL of Cell Titer-Glo solution (Promega #G7573) was added to each well, and the plate was shaken and mixed well, then incubated at room temperature for 5 to 30 minutes in the dark. The chemiluminescence was measured by a SynergyH1 microplate reader from BioTek.
(§5) The percentage inhibition data of the compound-treated well was calculated from solvent control wells on the plate {% inhibition=100−([…])×100}. IC50 values were calculated using GraphPad prism and using a four-parameter nonlinear logistic formula to fit the data of different concentrations and corresponding percent inhibition.
For orientation: Cellular ATP, detected with luciferase, serves as a proxy for viable cell number.

The test system of another test is MKN1 (E545K). Put plainly: Proliferation inhibition of PI3Kα mutant cancer cells, Cell Titer-Glo, MKN1. The test is classed as cell-based. The note with it: Homo sapiens, MKN-1. On the procedure: as §4, §5
Another test has as its system HGC-27 (E542K). In words: Proliferation inhibition of PI3Kα mutant cancer cells, Cell Titer-Glo, HGC-27. Format: cell-based. The note with it: Homo sapiens. On the procedure:
as §4, §5

The subject of another test is HCC1954 cell. Put plainly: In vivo efficacy test, HCC1954 tumor-bearing nude mice. The arrangement: species or system BALB/c nude mice. Conditions: oral, 10 mg/kg, once/day, 21 days (Example 22: 19 days). On the procedure: • a. A strain of HCC1954 cell was taken from the cell bank, recovered with RPMI-1640 medium (RPMI-1640+10% FBS+1% SP), plated in a cell culture flask (cell type, date, name of the experimenter and the like were labeled on the wall of the flask) and cultured in a CO2 incubator (the temperature was 37° C. and the CO2 concentration was 5% in the incubator). • b. Cells were passaged when they covered 80 to 90% of the bottom of the culture flask. After passage, the cells continued to be cultured in the CO2 incubator. This process was repeated until the number of cells was sufficient for the in vivo efficacy test. • c. The cultured cells were collected and counted with an automatic cell counter, and then resuspended with PBS and Matrigel Matrix according to the counting results to prepare a cell suspension (density 5×10^7/mL), which was placed in an ice box for use. 4.3.2 Cell Inoculation • a. The nude mice were labeled with disposable universal ear tags for rats and mice before inoculation. • b. During the inoculation, the cell suspension was mixed well. 0.1 to 1 mL of the cell suspension was drawn with a 1 mL syringe, air bubbles were removed, and then the syringe was placed on an ice pack for use. • c. The nude mouse was bound with the left hand. The position on the right side of the back close to the right shoulder of the nude mouse (inoculation site) was disinfected with 75% alcohol. Inoculation started after 30 seconds. • d. The test nude mice were successively inoculated (each mouse was inoculated with 0.1 mL of cell suspension). 4.3.3 Tumor Measurement, Grouping and Administration of Tumor-Bearing Mice • a. According to the tumor growth, the tumors was measured on 14 to 18 days after inoculation, and the tumor size was calculated. Calculation of tumor volume: tumor volume (mm^3)=length (mm)×width (mm)×width (mm)/2 • b. The tumor-bearing mice were grouped according to their body weight and tumor size by random grouping. • c. The test compounds were administered according to the grouping results (administration route: oral administration; administration dose: 10 mg/kg; administration volume: 10 mL/kg; administration frequency: once/day; administration cycle: 21 days; vehicle: 0.5% CMC/1% Tween 80). • d. Tumors were measured and weighed twice a week after the administration of test compounds began. • e. Animals were euthanized at the end of the experiment. • f. Data were processed by using softwares such as Excel. […] When the tumor regress, TGI (%)=[1−(average tumor volume of the treatment group at the end of the administration−average tumor volume of the treatment group at the beginning of the administration)/average tumor volume of the treatment group at the beginning of the administration]×100%.

T1 sequence (P42338 whole entry): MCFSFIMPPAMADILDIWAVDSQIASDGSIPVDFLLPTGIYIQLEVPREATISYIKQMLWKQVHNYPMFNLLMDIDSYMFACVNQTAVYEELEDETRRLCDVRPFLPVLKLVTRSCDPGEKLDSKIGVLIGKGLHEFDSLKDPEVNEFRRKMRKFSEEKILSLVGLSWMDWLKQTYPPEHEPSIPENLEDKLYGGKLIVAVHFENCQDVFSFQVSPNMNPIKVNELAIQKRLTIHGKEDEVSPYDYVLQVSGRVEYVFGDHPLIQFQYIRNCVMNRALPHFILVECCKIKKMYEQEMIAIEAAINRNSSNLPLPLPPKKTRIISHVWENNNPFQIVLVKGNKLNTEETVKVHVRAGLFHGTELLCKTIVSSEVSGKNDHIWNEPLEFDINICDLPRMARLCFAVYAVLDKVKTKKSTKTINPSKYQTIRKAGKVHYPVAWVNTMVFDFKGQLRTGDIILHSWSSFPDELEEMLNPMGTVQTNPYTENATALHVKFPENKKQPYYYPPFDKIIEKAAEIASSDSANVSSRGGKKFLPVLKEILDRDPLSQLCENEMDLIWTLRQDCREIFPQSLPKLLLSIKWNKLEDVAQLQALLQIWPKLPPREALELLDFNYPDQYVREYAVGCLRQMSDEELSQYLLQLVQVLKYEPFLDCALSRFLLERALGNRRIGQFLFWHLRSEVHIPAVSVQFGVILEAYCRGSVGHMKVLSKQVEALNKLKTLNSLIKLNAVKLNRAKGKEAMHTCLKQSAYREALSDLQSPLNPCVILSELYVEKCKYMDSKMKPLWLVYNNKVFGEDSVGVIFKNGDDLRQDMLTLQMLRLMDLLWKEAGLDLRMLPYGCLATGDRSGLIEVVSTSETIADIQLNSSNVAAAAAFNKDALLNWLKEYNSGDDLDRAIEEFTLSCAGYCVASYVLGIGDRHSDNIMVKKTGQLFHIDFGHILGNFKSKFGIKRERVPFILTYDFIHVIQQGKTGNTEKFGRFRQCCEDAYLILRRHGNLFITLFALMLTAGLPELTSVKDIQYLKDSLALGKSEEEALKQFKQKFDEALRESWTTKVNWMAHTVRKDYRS
T1 sequence (P27986 whole entry partner): as the sequence (P27986 whole entry partner) above

Take `C[C@H](Nc1ccc2c(c1)OCCn1cc(N3C(=O)SC[C@H]3C(F)F)nc1-2)C(N)=O` [Example 22, (S)-2-((2-((R)-4-(difluoromethyl)-2-oxothiazolidin-3-yl)-5,6-dihydrobenzo[f]imidazo[1,2-d][1,4]oxazepin-9-yl)amino)propionamide]: at PI3Kβ, the “Selectivity of PI3Kα vs PI3Kβ” value amounted to 840. Besides, the “Selectivity of PI3Kα vs PI3Kγ” value at PI3Kγ amounted to 450. Also, on PI3Kδ, the “Selectivity of PI3Kα vs PI3Kδ” value was 245. Moreover, the IC50 (as a rule, the concentration needed to halve the response being measured) with HCC1954 (H1047R) is 0.021 µM; in the test with MKN1 (E545K), 0.06 µM; in the test on HGC-27 (E542K), 0.04 µM. Also, the “Tumor growth inhibition rate” value in the test on HCC1954 cell is 132%.
Consider `C[C@H](Nc1ccc2c(c1)N(C)CCn1cc(N3C(=O)OC[C@H]3C(F)F)nc1-2)C(N)=O` [Example 56, (S)-2-((2-((S)-4-(difluoromethyl)-2-oxooxazolidin-3-yl)-7-methyl-6,7-dihydro-5H-benzo[f]imidazo[1,2-d][1,4]diazoheptin-9-yl)amino)propionamide], for which the IC50 on PI3Kβ was 0.168 µM; at PI3Kγ, 0.09 µM; at PI3Kδ it was 0.049 µM; in the test on HCC1954 (H1047R), 0.05 µM; in the test with MKN1 (E545K), 0.104 µM; with HGC-27 (E542K) it was 0.11 µM. Besides, on PI3Kβ, the “Selectivity of PI3Kα vs PI3Kβ” value is 336. For the same compound, on PI3Kγ, the “Selectivity of PI3Kα vs PI3Kγ” value is listed as 180. For the same compound, on PI3Kδ, the “Selectivity of PI3Kα vs PI3Kδ” value was determined as 98. Further, the “Tumor growth inhibition rate” value in the test with HCC1954 cell is reported as 122%.
`C[C@H](Nc1ccc2c(c1)SCCn1cc(N3C(=O)OC[C@H]3C(F)F)nc1-2)C(N)=O` [Example 62, (S)-2-((2-((S)-4-(difluoromethyl)-2-oxooxazolidin-3-yl)-5,6-dihydrobenzo[f]imidazo[1,2-d][1,4]thiazepin-9-yl)amino)propionamide]: the IC50 at PI3Kβ is 0.102 µM; on PI3Kγ, 0.05 µM; on PI3Kδ it was 0.028 µM; with HCC1954 (H1047R) it was 0.013 µM; in the test on MKN1 (E545K), 0.025 µM; in the test on HGC-27 (E542K) it was 0.022 µM. The “Selectivity of PI3Kα vs PI3Kβ” value on PI3Kβ came out at 1020. Further, the “Selectivity of PI3Kα vs PI3Kγ” value on PI3Kγ came to 500. On PI3Kδ, the “Selectivity of PI3Kα vs PI3Kδ” value is recorded as 280. Besides, in the test on HCC1954 cell, the “Tumor growth inhibition rate” value came out at 147%.
